Read-outs that look alike come from different tables or passages of the source.

The values below come from patent publication US12215067B2, “Chemical compounds targeting the eye and use thereof in the treatment of eye diseases” (BIOPHYTIS, priority 2019, dated 2025).

Series [1] deals with primary cultures of RPE of adult pigs. Kind of series: In vitro photoprotection of RPE cells illuminated with blue light in the presence of A2E. It counts as cell-based, pig. Particulars: Sus scrofa, RPE, A2E 30 μM, survival 24 h after illumination; for viability at 5 µM: 5 μM compound; for viability at 10 µM: 10 μM compound; for viability at 20 µM: 20 μM compound. The source says: In addition to better distribution in the target-tissue, selecting new compounds must also be based on good photo-protective activity that limits the loss of the cells of the RPE and thus reducing the retinal degeneration observed during the AMD and other degenerative diseases such as Retinitis pigmentosa and Stargardt's disease. At the cellular level, on cultures of cells the RPE coming from pig retina, Fontaine et al. (2016) have shown that a treatment with norbixin (BIO201) protects the cells of the RPE against apoptosis following an illumination in the presence of A2E (80% survival 24 h after exposure). This same screening test according to the percentage of photoprotection was used so as to determine its modulation by and the chemical compounds derived from norbixin (C) object of the present invention in comparison with the photo-protective effect of norbixin and characterize these modulations from a statical standpoint.
The test in vitro described hereinabove and intended to study the photo-protective effect of norbixin was used so as to quantify the photo-protective effects of the various chemical compounds derived from norbixin (C) on the cells of the RPE illuminated with blue light in the presence of A2E (FIG. 3). The photo-protective effect of the molecules was evaluated in a phototoxicity cellular model induced by treatment by A2E followed by an illumination with blue light. The term “blue radiation” means the radiation corresponding to the blue band of the visible light spectrum, i.e. of a wavelength comprised between 435 and 490 nm. This model uses primary cultures of RPE of adult pigs. The cell survival is quantified thanks to a test of cellular viability. At −48 h the compounds to be tested (in solution at 5 mM in the DMSO) are added to obtain the final concentrations of 1 to 20 μM) then at −19 h of the A2E (final concentration 30 μM) and the cells (time 0 h) are illuminated. 24 h after the survival of the cells is measured. The acquisition of images, as well as the processing thereof, are carried out using a fluorescence microscope controlled by the Metamorph software and a dedicated quantification program. The experiments are conducted on a 96-well microplate in quadruplicate and the experiment is reproduced at least four times. The results are expressed in the form of a ratio representing the number of living cells in the wells treated by the molecules to be tested, divided by the number of living cells in the controlled wells (treated by the dilution medium without A2E). This test made it possible hereinabove to reveal the photo-protective activity of norbixin (Fontaine et al. 2016).

A short description of series [2]: Pharmacokinetic study via oral administration in mice, plasma concentrations. It counts as in vivo, mice C57BL/6. As to the method: (§1) The pharmacokinetic study of the chemical compounds (C) following the oral administration thereof was conducted using mice C57BL/6 (January, 53940 The Genest Saint Isle, France). The chemical compounds derived from norbixin (C) were administered at a dose of 50 mg/kg of body weight. After administration, the blood was sampled at the tail at t=0.25 h; 0.5 h; 1 h; 3 h; 6 h and 8 h. The blood samples were centrifuged and the plasmas taken. The dosage of the plasma samples made it possible to determine pharmacokinetic parameters, namely Cmax, which corresponds to the maximum concentration observed after the administration of the molecule, Tmax which is the time required to reach maximum concentration after administration of the molecule and the AUC: the area under the curve which corresponds to the plasma exposure (FIG. 2).
(§2) The LC-MSMS analysis is carried out with a HPLC 1200 Infinity chain (Agilent Technologies, Santa-Clara, United States), a UV detector and a mass spectrometer QQQ6420 (Agilent Technologies Santa-Clara, United States). The injection volume is 5 μL. The chemical compounds C are eluted on an inverse phase column C18 (2.1*50 mm, particles 3 μm; Ace-C18-Excel, AIT) with a gradient of acetonitrile and water (containing 0.1% formic acid) and a flow rate of 0.3 mL/min. The conditions of the gradient can change according to the chemical compound C analyzed. The UV detector analyzes at 460 nm and the mass spectrometer analyzed in Mode MRM—Positive.
(§3) Table 2 discloses the pharmacokinetic results of the chemical compounds C following the administration p.o. 50 mg/kg in D-α-Tocopheryl polyethylene glycol 1000 succinate (VitE-TPGS) 20% in a sodium bicarbonate buffer (0.1M).

Series [3] is described as follows: Pharmacokinetic study via oral administration in mice, ocular concentrations. It counts as in vivo, mice C57BL/6. The following applies: for Tmax: C57BL/6, mouse, eye, po; for Tmax / Eye CMax: mice, p.o. 50 mg/kg in VitE-TPGS 20% in sodium bicarbonate buffer (0.1M); for Eye Exposure 50 mg/kg p.o. AUC: Table 3, repeats the eye exposure of Table 2. The method, then:
as §1
In parallel, the ocular concentrations of the chemical compounds derived from norbixin (C) were dosed in the following way (FIG. 1): both eyes of each mouse were taken in Precellys tubes and stored at −80° C. until the time of dosing. The eyes are then ground in the Precellys tubes with a bench homogenizer, Fast-prep (Fischer Scientific, Hampton, United States) in a mixture of organic solvents, in a first step with 500 μL of chloroform/methanol (1/1, v/v) then 500 μL of chloroform/dichloromethane (1/1, v/v). The supernatants are recovered at each step and transferred to a 96-well plate of 2 mL.
For the quantification of the chemical compounds C, a calibration curve is carried out with 8 standards (5 to 5,000 ng/mL) in the same organic solvent mixtures and transferred (100 μL) to the 96-well plate of 2 mL.
The supernatants and standards are evaporated in a EZ2 (Genevac, Ipswich, United Kingdom), without heating, then taken with 100 μL of DMSO/methanol (20:80, v/v) before being transferred to a 96-well plate of 200 μL.
as §2, §3

Where [4] appears, read: C57BL/6, mouse, in vivo, po, 50 mg/kg.

A word on the viability: it is the share of living cells, or the viability signal relative to a control. One may read the Cmax as the peak of the concentration-time curve. A word on the Tmax: it is the time at which the peak concentration occurs. `CC(=C/C=C/C(C)=C/C=C/C=C(C)/C=C/C=C(C)/C=C/C(=O)N1CCC(O)CC1)/C=C/C(=O)O` [C12, 1-[4-hydroxypiperidinamido](2E,4E,6E,8E,10E,12E,14E,16Z,18E)-4,8,13,17-tetramethylicosa-2,4,6,8,10,12,14,16,18-nonaenedioate]: in series [1], the viability at 5 µM was 7.7%, the viability at 10 µM was 14.3% and the viability at 20 µM is 59.6%. In series [2] (setting [4]), the highest level (Cmax) was 29300 ng/mL, the “Plasma Exposure” value is 186.3 µg·h/mL and the Tmax was 30 min. Moreover, in series [3], the Tmax was determined as 60 min, the “Eye Exposure 50 mg/kg p.o. AUC” value is on record as 538.4 ng · h/eye and the “Eye CMax” value worked out at 50.7 ng/eye.

As for `CC(=C/C=C/C(C)=C/C=C/C=C(C)/C=C/C=C(C)/C=C/C(=O)NCC(C)(C)N1CCOCC1)/C=C/C(=O)O` [C13, 1-[2-methyl-2-(4-morpholinyl)propylamido](2E,4E,6E,8E,10E,12E,14E,16Z,18E)-4,8,13,17-tetramethylicosa-2,4,6,8,10,12,14,16,18-nonaenedioate], in series [1], the viability at 5 µM is 8%, the viability at 10 µM is 0.5% and the viability at 20 µM is 8%. In series [2] (setting [4]), the Cmax turned out to be 27900 ng/mL, the “Plasma Exposure” value was 139.7 µg·h/mL and the Tmax was determined as 30 min. In series [3], the Tmax was found to be 60 min, the “Eye Exposure 50 mg/kg p.o. AUC” value came to 461.1 ng · h/eye and the “Eye CMax” value is 60.7 ng/eye.

Turning to `CCCOC1CCN(C(=O)/C=C/C(C)=C/C=C/C(C)=C/C=C/C=C(C)/C=C/C=C(C)\C=C\C(=O)O)CC1` [C22, 1-[4-n-propoxypiperidinamido](2E,4E,6E,8E,10E,12E,14E,16Z,18E)-4,8,13,17-tetramethylicosa-2,4,6,8,10,12,14,16,18-nonaenedioate], in series [1], the viability at 5 µM came to 64.5%, the viability at 10 µM is 72.8% and the viability at 20 µM worked out at 66%. In series [2] (setting [4]), the Cmax is 12800 ng/mL, the “Plasma Exposure” value amounted to 37.25 µg·h/mL and the Tmax stood at 15 min. Also, in series [3], the Tmax was found to be 120 min, the “Eye Exposure 50 mg/kg p.o. AUC” value turned out to be 358.5 ng · h/eye and the “Eye CMax” value stood at 42.1 ng/eye.

Consider `CC(=C/C=C/C(C)=C/C=C/C=C(C)/C=C/C=C(C)/C=C/C(=O)N1CCCC1)/C=C/C(=O)O` [C7, 1-pyrrolidinamido-(2E,4E,6E,8E,10E,12E,14E,16Z,18E)-4,8,13,17-tetramethylicosa-2,4,6,8,10,12,14,16,18-nonaenedioate], for which, in series [1], the viability at 5 µM was 5.2% and the viability at 10 µM turned out to be 52.8%. Moreover, in series [2] (setting [4]), the maximum concentration (Cmax) came out at 6890 ng/mL, the “Plasma Exposure” value was determined as 17.29 µg·h/mL and the Tmax is 30 min. In addition, in series [3], the Tmax is 30 min, the “Eye Exposure 50 mg/kg p.o. AUC” value was 18.5 ng · h/eye and the “Eye CMax” value amounted to 7 ng/eye.

`CC(=C/C=C/C(C)=C/C=C/C=C(C)/C=C/C=C(C)/C=C/C(=O)NCCCN1CCOCC1)/C=C/C(=O)O` [C8]: in series [1], the viability at 5 µM turned out to be 28.6%, the viability at 10 µM was 33.4% and the viability at 20 µM was 75.2%. Besides, in series [2] (setting [4]), the highest level (Cmax) was 59800 ng/mL, the “Plasma Exposure” value came out at 173.74 µg·h/mL and the Tmax was found to be 30 min. In addition, in series [3], the Tmax is 60 min, the “Eye Exposure 50 mg/kg p.o. AUC” value turned out to be 472.4 ng · h/eye and the “Eye CMax” value came out at 56.8 ng/eye.

`CC(=C/C=C/C(C)=C/C=C/C=C(C)/C=C/C=C(C)/C=C/C(=O)N1CCOCC1)/C=C/C(=O)O` [C2, 1-[1,4-oxazinamido](2E,4E,6E,8E,10E,12E,14E,16Z,18E)-4,8,13,17-tetramethylicosa-2,4,6,8,10,12,14,16,18-nonaenedioate]: in series [1], the viability at 5 µM is 33.9%, the viability at 10 µM was 22.3% and the viability at 20 µM amounted to 49.1%. The Cmax in series [2] (C57BL/6, mouse, in vivo, po, mice, p.o. 50 mg/kg in VitE-TPGS 20% in sodium bicarbonate buffer (0.1M), read-out: Plasma CMax) came to 34000 ng/mL. For the same molecule, the Tmax in series [2] (C57BL/6, mouse, in vivo, po, mice, p.o. 50 mg/kg in VitE-TPGS 20% in sodium bicarbonate buffer (0.1M), read-out: Plasma TMax) amounted to 30 min. Besides, the “Plasma Exposure” value in series [2] (mice, p.o. 50 mg/kg in VitE-TPGS 20% in sodium bicarbonate buffer (0.1M), area under the curve) amounted to 176.2 µg·h/mL. In addition, in series [3], the Tmax was 30 min, the “Eye Exposure 50 mg/kg p.o. AUC” value came to 186.5 ng · h/eye and the “Eye CMax” value was 41 ng/eye.

Take `CC(=C/C=C/C(C)=C/C=C/C=C(C)/C=C/C=C(C)/C=C/C(=O)NCCO)/C=C/C(=O)O` [C4, 1-[2-hydroxyethanamido](2E,4E,6E,8E,10E,12E,14E,16Z,18E)-4,8,13,17-tetramethylicosa-2,4,6,8,10,12,14,16,18-nonaenedioate]: in series [1], the viability at 5 µM worked out at 16.4%, the viability at 10 µM came to 36% and the viability at 20 µM turned out to be 67.2%. Also, in series [2] (setting [4]), the maximum concentration (Cmax) came out at 57100 ng/mL, the “Plasma Exposure” value was 208.6 µg·h/mL and the time of peak concentration (Tmax) was found to be 60 min. Further, in series [3], the Tmax is 30 min, the “Eye Exposure 50 mg/kg p.o. AUC” value came out at 30.0 ng · h/eye and the “Eye CMax” value stood at 10.2 ng/eye.

Consider `COC1CCCN(C(=O)/C=C/C(C)=C/C=C/C(C)=C/C=C/C=C(C)/C=C/C=C(C)\C=C\C(=O)O)C1` (centres unmarked) [C20, 1-[3-methoxypiperidinamido](2E,4E,6E,8E,10E,12E,14E,16Z,18E)-4,8,13,17-tetramethylicosa-2,4,6,8,10,12,14,16,18-nonaenedioate], for which, in series [1], the viability at 5 µM stood at 65.6%, the viability at 10 µM is 65.6% and the viability at 20 µM is 79%. In series [2] (setting [4]), the Cmax was determined as 35000 ng/mL, the “Plasma Exposure” value amounted to 160.4 µg·h/mL and the Tmax came to 60 min. Further, in series [3], the Tmax is 120 min, the “Eye Exposure 50 mg/kg p.o. AUC” value is on record as 421.9 ng · h/eye and the “Eye CMax” value is recorded as 80.4 ng/eye.
